US10035814B2, “Guanine analogs as telomerase substrates and telomere length affectors” (Geron Corporation, priority 2011, dated 2018)
Values joined by “and” are separate entries in the source; they are usually repeats but may differ in a detail not shown here. Equal values may be shown once.

Key:
[1] = target: telomerase in HT3 cells (Homo sapiens (Human), UniProt O14746); test: Ex vivo TRAP assay in HT3 cells; assay type: cell-based; details: for EC50: Table 8, assay not given, repeat determinations, values coincide with Ex Vivo TRAP, read-out: EC50
telomerase in HT3 cells, sequence (O14746 whole entry): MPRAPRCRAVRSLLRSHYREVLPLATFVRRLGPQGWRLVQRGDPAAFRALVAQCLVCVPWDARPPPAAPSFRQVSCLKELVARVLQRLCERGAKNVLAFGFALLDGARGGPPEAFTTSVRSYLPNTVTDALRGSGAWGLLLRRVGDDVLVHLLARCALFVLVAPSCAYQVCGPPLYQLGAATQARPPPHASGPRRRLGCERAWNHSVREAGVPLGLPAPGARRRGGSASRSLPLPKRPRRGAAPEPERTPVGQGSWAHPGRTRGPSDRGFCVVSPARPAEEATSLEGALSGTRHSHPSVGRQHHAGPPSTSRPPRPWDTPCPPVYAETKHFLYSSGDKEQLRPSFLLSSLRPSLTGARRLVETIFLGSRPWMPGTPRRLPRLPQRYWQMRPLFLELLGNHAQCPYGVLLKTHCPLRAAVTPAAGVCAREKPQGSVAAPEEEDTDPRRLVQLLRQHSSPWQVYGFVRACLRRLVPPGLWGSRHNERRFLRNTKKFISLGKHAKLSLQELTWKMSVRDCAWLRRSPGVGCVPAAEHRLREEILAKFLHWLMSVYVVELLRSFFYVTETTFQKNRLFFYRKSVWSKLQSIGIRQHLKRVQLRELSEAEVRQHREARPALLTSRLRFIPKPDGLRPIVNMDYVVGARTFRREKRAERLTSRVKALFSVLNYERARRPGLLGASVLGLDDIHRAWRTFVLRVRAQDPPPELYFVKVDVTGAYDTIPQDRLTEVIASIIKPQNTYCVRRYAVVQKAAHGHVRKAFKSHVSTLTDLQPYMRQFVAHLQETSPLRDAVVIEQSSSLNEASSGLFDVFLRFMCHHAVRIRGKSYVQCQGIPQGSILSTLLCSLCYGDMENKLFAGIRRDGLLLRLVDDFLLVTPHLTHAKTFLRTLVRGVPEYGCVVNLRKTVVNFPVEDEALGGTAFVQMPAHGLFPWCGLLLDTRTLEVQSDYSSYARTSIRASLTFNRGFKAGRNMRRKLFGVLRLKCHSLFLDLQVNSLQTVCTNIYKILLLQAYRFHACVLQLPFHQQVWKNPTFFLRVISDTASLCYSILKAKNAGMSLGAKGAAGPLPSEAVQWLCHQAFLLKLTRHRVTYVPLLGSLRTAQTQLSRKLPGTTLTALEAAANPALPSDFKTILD
telomerase in HT3 cells, sequence (O60832 whole entry partner): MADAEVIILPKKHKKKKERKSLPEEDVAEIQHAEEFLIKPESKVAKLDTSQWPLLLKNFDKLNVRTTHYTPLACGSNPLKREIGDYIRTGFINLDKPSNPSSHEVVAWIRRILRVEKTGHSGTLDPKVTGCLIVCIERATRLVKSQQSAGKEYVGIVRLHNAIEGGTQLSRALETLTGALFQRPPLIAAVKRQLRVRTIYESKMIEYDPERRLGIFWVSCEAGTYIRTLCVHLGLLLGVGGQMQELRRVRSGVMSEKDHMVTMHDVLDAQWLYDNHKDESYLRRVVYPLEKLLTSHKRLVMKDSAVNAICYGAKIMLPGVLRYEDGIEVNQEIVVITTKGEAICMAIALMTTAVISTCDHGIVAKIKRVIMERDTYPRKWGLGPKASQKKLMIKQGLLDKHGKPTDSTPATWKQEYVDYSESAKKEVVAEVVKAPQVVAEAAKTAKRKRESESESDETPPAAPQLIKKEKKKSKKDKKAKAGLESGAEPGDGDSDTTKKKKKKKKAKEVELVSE
telomerase in HT3 cells, sequence (Q9NX24 whole entry partner): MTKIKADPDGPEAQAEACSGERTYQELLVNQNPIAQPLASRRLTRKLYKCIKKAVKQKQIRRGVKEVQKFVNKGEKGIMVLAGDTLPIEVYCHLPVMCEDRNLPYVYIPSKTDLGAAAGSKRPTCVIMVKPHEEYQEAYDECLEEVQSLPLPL
telomerase in HT3 cells, sequence (Q9NPE3 whole entry partner): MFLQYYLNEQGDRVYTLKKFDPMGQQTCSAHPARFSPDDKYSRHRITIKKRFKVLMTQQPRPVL
telomerase in HT3 cells, sequence (Q9NY12 whole entry partner): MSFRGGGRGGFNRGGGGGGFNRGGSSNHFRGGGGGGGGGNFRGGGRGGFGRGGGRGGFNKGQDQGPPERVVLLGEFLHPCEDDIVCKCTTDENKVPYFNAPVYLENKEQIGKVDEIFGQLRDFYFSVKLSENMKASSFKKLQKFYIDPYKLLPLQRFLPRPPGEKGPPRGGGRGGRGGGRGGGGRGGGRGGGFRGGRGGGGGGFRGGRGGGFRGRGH
telomerase in HT3 cells, sequence (Q9BUR4 whole entry partner): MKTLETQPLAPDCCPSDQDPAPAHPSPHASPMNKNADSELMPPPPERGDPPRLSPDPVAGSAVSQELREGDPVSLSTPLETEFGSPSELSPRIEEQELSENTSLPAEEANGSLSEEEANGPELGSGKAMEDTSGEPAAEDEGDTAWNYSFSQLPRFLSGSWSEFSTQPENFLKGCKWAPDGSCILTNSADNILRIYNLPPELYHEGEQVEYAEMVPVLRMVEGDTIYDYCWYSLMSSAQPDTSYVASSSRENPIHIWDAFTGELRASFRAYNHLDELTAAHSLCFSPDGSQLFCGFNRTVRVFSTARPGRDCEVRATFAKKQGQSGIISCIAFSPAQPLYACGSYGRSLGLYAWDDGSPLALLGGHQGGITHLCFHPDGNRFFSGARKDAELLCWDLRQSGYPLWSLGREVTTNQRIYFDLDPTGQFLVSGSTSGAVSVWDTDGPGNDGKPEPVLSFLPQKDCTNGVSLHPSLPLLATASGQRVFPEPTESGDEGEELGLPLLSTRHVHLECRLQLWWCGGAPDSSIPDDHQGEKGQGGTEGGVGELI
Method: HT3 cells were treated for three days with increasing concentrations of PMPG-diisopropyloxy ester ranging from 0.2 μM to 20 μM. Cells (HT3 RPMI+10% PBS) were incubated with compound for 24 hr after which PSTS primer (phosphorothioate-d(AATCCGTCGAGCAGAGTT (SEQ ID NO: 6) containing a 5′ Cy-5 label) (7.5 μM) and fresh compound are added for an additional 24 hr. Cells were lysed and endogenous telomerase inactivated by heating (15 min, 75° C.). Products were amplified by 30 cycles of PCR under TRAP conditions set forth above and quantified. The results of two independent experiments are shown in Table 4.
HT3 cells were treated for three days with increasing concentrations of one or more of the indicated compounds ranging from 0.2 μM to 20 μM. Cells (HT3 RPMI+10% FBS) were incubated with compound for 24 hours, after which PSTS primer (phosphorothioate-d AATCCGTCGAGCAGAGTT (SEQ ID NO: 6) containing a 5′ Cy-5 label) (7.5 μM) and fresh compound were added for an additional 24 hours. Cells were lysed and endogenous telomerase inactivated by heating (15 minutes, 75° C.). Products were amplified by 30 cycles of PCR under TRAP conditions set forth in Kim et al., Science 266:2011, […] (which reference is incorporated herein in its entirety) and quantified.

[2] = system: A549 cells; test: Telomere repeat fragment (TRF) assay using A549 cells; assay type: cell-based; details: approximately 70 population doublings
Method: (§1) Approximately 1-2 μg of genomic DNA from each cell line or tissue was digested by Hinf/RsaI for 2 hours at 37° C. Following DNA digestion, the genomic DNA fragments were separated on a 0.8% agarose gel and transferred to a nylon membrane by blotting. All membrane hybridization and detection reagents were provided in the TeloTAGGG Telomere Length Assay kit (Roche Diagnostics, Mannheim Germany). The blotted membranes were hybridized with digoxigenin (DIG)-labeled PNA probe specific for telomeric repeats, followed by incubation with anti-DIG-antibody-alkaline phosphatase according to the manufacturer's instructions. Alkaline phosphatase was quantified using the chemiluminescent substrate. Telomere lengths were calculated according to the manufacturer's instruction.
Lane 1 is a ladder from 21.2 kb to 1.9 kb. Lanes 2 and 3 have 10 μM and 5 μM, respectively, of PMPG free acid (ID#142693). Lanes 4 to 6 have 10 μM, 5 μM, and 2.5 μM, respectively, of PMPG prodrug (ID#142715). Lane 7 has 2 μM of Imetelstat (163 L). Lane 8 has 2 μM of a mismatch. Lanes 9 and 10 have 20 μM and 10 μM, respectively, of PMIBeG free acid [(((2-((2-amino-6-oxo-1H-purin-9(6H)-yl)methyl)allyl)oxy)methyl)phosphonic acid] (ID#142811). Indicated amounts each compound were added to A549 cells. After approximately 70 population doublings, the cells were harvested and telomere lengths determined using TRF. The estimated average telomere lengths were: (1) MM/mismatch control: 7 kb; (2) Imetelstat/163 L: 4.3 kb; (3) PMPG prodrug (10 μM and 5 μM): 4 kb; (4) PMPG free acid (5 μM and 10 μM): 4 kb; (5) PMIBeG prodrug (50 μM): 4.3 kb; (6) PMIBeG free acid (20 μM): 5 kb.

[3] = Cytotoxicity in cell culture (cells not named); assay type: cell-based
[4] = system: Caki-1 cells; test: Caki-1 tumor growth in SCID hairless outbred (SHO) mice; assay type: in vivo; details: for tumor growth compared to vehicle control: 30 mg/kg intraperitoneal; for Intercept coefficient of linear transformed tumor growth curve / Slope coefficient of linear transformed tumor growth curve: linear mixed effects model, change versus vehicle
Method: Low-passage Caki-1 cells were injected subcutaneously into the flank of SCID hairless outbred (SHO) mice receiving 30 mg/kg of one of the following via intraperitoneal injection: vehicle (PBS with 0.4% Tween 20), Imetelstat (163 L), PMPG free acid (ID#142693), or PMPG prodrug (ID#142715). Calipers were used to measure tumor length and width bi-weekly, and tumor volume was calculated. Once a tumor had grown >50 mm^3, the animal was randomly entered into a study group, either control or treatment. Animals received 30 mg/kg compound via intraperitoneal injection for the duration of the study. The control vehicle was PBS with 0.4% Tween 20. Tumor volume was measured bi-weekly, and animals were sacrificed either when tumor size was >2000 mm^3 or at defined study completion date.
At the conclusion of the study, a linear transformation of the tumor growth curves was performed. The slope of the growth curves for each treatment group was derived by using a linear mixed effects model. The Y-intercept was used to confirm random tumor starting size at the time of animals entering into the study.

[5] = system: RPE-64-tv cells; test: Cytotoxicity in RPE-64-tv cells; assay type: cell-based
[6] = system: immortal U87 cells; test: Telomere repeat fragment (TRF) assay using immortal U87 cells; assay type: cell-based; details: concentration not given at the value, approximately 20 population doublings
Method: as §1
Telomere repeat fragment assays using immortal U87 cells were performed. 10 μM or 20 μM PMIBeG prodrug (ID#142820) or PMPG prodrug (ID#142715) were added to the cells. Imetelstat (163 L) was used as a reference and a mismatch was used as a negative control. After approximately 20 population doublings, the cells were harvested and telomere lengths determined using TRF. The estimated average lengths were: (1) mismatch control: 5 kb; (2) Imetelstat (163 L): 3.5 kb; (3) PMIBeG prodrug (ID#142820) at 20 μM: 4 kb; (4) PMIBeG prodrug (ID#142820) at 10 μM: 4.1 kb; (5) PMPG prodrug (ID#142715): 3.5 kb.

[7] = target: telomerase (Homo sapiens (Human), UniProt O14746); test: Primer extension assay for telomerase activity; assay type: biochemical; details: prodrug itself, cell free
telomerase, sequence (O14746 whole entry): as the sequence (O14746 whole entry) above
Method: Purified human telomerase was incubated with d(TTAGGG)3 (SEQ ID NO: 1) and deoxy-nucleoside triphosphates for 90 minutes at 37° C. All reactions were done in the presence of 200 dTTP and 10 μM dATP (50,000 cpm/pmol a-^33P-dATP). Activity was determined by incubating affinity purified telomerase extract with 1 μM primer [d(TTAGGG)3] (SEQ ID NO: 1), 200 μM dTTP, 50 μM dGTP, 10 μM dATP, 10 μCi [α-^33P]dATP (2000-4000 Ci/mmol) in a buffer containing 50 mM (N-2-hydroxyethyl piperazine-N′-3 propanesulfonic acid)-NaOH pH 8.5, 1 mM MgCl2, 1 mM DTT, 5% glycerol, 0.5 mM EGTA and 100 mM KOAc in a final reaction volume of 40 μl. Primer extension products were analyzed on a 15% polyacrylamide gel containing 7 M urea. A characteristic telomerase ladder has multiple bands. If a compound is not a substrate then (TTAGGG)3TTA (21 nt) (SEQ ID NO: 2). If a compound is a chain terminator then (TTAGGG)3TTAG* (22 nt) (SEQ ID NO: 3).
Purified human telomerase was incubated with d(TTAGGG)3 (SEQ ID NO: 1) and deoxy-nucleoside triphosphates for 90 minutes at 37° C. All reactions were done in the presence of 200 dTTP and 10 μM dATP (50,000 cpm/pmol a-^33P-dATP). Activity was determined by incubating affinity purified telomerase extract with […] primer [d(TTAGGG)3] (SEQ ID NO: 1), […] [α-^33P]dATP (2000-4000 Ci/mmol) in a buffer containing 50 mM (N-2-hydroxyethyl piperazine-N′-3 propanesulfonic acid)-NaOH pH 8.5, 1 mM MgCl2, 1 mM DTT, 5% glycerol, 0.5 mM EGTA and 100 mM KOAc in a final reaction volume of 40 μl. Primer extension products were analyzed on a 15% polyacrylamide gel containing 7 M urea. A characteristic telomerase ladder has multiple bands. If a compound is not a substrate then (TTAGGG)3TTA (21 nt) (SEQ ID NO: 2). If a compound is a chain terminator then (TTAGGG)3TTAG* (22 nt) (SEQ ID NO: 3).

[8] = Day 10, 30 mg/kg intraperitoneal
[9] = Day 20, 30 mg/kg intraperitoneal
[10] = Day 30, 30 mg/kg intraperitoneal
[11] = Day 40, 30 mg/kg intraperitoneal
[12] = Day 50, 30 mg/kg intraperitoneal
[13] = Day 60, 30 mg/kg intraperitoneal

Molecule | EC50 [1] | estimated average telomere length ([2]; 10 μM and 5 μM) [kb] | tumor growth compared to vehicle control [4] | tumor volume [4, 8] [mm^3] | tumor volume as a percentage of the tumor volume of control vehicle mice [4, 8] [%] | tumor volume [4, 9] [mm^3] | tumor volume as a percentage of the tumor volume of control vehicle mice [4, 9] [%] | tumor volume [4, 10] [mm^3] | tumor volume as a percentage of the tumor volume of control vehicle mice [4, 10] [%] | tumor volume [4, 11] [mm^3] | tumor volume as a percentage of the tumor volume of control vehicle mice [4, 11] [%] | tumor volume [4, 12] [mm^3] | tumor volume as a percentage of the tumor volume of control vehicle mice [4, 12] [%] | tumor volume [4, 13] [mm^3] | tumor volume as a percentage of the tumor volume of control vehicle mice [4, 13] [%] | Intercept coefficient of linear transformed tumor growth curve [4] | Slope coefficient of linear transformed tumor growth curve [4] | estimated average telomere length [6] [kb] | other results
CC(Cn1cnc2c(=O)[nH]c(N)nc21)OCP(=O)(O)O (single isomer, unassigned) [ID#142693, R-(((Guanine-9-yl)propan-2-oxy)methyl) phosphonic acid] | 11.7 µM and 2.5 µM and 1.5 µM | 4 | reduction in tumor growth | 165.1 | 91 | 330.8 | 83 | 581.3 | 78 | 934.3 | 75 | 1407.2 | 73 | 2017.6 | 71 | 0.096 | −0.027 | – | cytotoxicity ([3]; 200 uM): acutely cytotoxic; cytotoxicity ([3]; therapeutic doses (10 μM and 20 μM)): minimal cytotoxicity
C=C(COCP(=O)(O)O)Cn1cnc2c(=O)[nH]c(N)nc21 [ID#142811, (((2-((2-amino-6-oxo-1H-purin-9(6H)-yl)methyl)allyl)oxy)methyl)phosphonic acid] | – | – | – | – | – | – | – | – | – | – | – | – | – | – | – | – | – | – | estimated average telomere length ([2]; 20 μM): 5 kb; cytotoxicity compared with PMPG [5]: less cytotoxic than PMPG; effect on tissue culture ([5]; 200 μM): no effect on tissue culture
Imetelstat [reference compound] | – | – | reduction in tumor growth | 146.0 | 81 | 293.5 | 74 | 517.0 | 70 | 832.2 | 67 | 1254.8 | 65 | 1800.7 | 63 | −0.074 | −0.032 | 3.5 | estimated average telomere length ([2]; 2 μM): 4.3 kb
CC(C)OC(=O)OCOP(=O)(COC(C)Cn1cnc2c(=O)[nH]c(N)nc21)OCOC(=O)OC(C)C (single isomer, unassigned) [ID#142715] | 1.1 µM and 1.2 µM and 3.1 µM and 0.81 µM | 4 | – | 170.7 | 94 | 377.5 | 95 | 706.6 | 95 | 1186.6 | 95 | 1845.9 | 95 | 2713.0 | 96 | −0.093 | −0.001 | 3.5 | activity in the cell free telomerase assay [7]: inactive; IC50 ([1]; HT3 cells, 0.2 μM to 20 μM, two independent experiments, read-out: Ex vivo Assay IC 50): 1 to 3 µM and 1.2 to 3.2 µM
